# Measured values reported in patent publication US20090088432A1, “Thiazolinones and Oxazolinones and their Use as Ptp1b Inhibitors” (priority 2005, published 2009).
# Target: T1, Recombinant human Protein-tyrosine phosphatase1B (PTP1B) (Homo sapiens, UniProt P18031)
# T1 construct: Recombinant human Protein-tyrosine phosphatase1B (PTP1B) (amino acid 1-322 Biomol, USA); purchased Biomol, USA
# T1 sequence (P18031 1-322): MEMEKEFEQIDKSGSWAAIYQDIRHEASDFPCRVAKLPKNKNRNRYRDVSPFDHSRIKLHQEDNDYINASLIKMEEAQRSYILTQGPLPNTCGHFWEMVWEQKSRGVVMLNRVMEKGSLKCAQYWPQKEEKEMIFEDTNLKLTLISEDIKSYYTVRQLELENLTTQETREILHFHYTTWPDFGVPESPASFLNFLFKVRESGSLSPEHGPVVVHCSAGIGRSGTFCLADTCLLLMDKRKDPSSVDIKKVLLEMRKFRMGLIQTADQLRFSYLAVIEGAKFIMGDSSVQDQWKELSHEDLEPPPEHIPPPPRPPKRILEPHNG
# Test: PTP1B enzyme inhibition assay (pNpp substrate)
# Type: biochemical
# Details: inhibition of recombinant human PTP1B, pNpp 5 mM, 30 mins at 25° C; inhibitor concentration not given
# In short: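 Recombinant human PTP1B (0.016 μg/well) preincubated with compound 30 min at 25 °C in 50 mM HEPES pH 7.4, 1 mM EDTA, 1 mM DTT, 0.05% Igepal, 1% DMSO final. Reaction started with 5 mM pNpp, run 30 min at 25 °C; p-nitrophenol read at 410 nm.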
row,Activity Score,Compound
1,(+++) (+++ = >50% inhibition),"Cc1ccc(S(=O)(=O)NC(=O)Cc2ccc(NC3=NC(=O)C(=Cc4ccc(N5CCN(c6ccccn6)CC5)cc4)S3)cc2)cc1.[Na] [Compound 173, 4-Methyl-N-[2-(4-{4-oxo-5-[4-(4-pyridin-2-yl-piperazin-1-yl)-benzylidene]-4,5-dihydro-thiazol-2-ylamino}-phenyl)-acetyl]-benzenesulfonamide sodium salt]"
2,(++) (++ = 20-50% inhibition),"Cc1ccc(S(=O)(=O)NC(=O)Cc2ccc(NC3=NC(=O)C(=Cc4cc5ccccc5cc4OCC(=O)O)S3)cc2)cc1 [Compound 213, [3-(4-Oxo-2-{4-[2-oxo-2-(toluene-4-sulfonylamino)-ethyl]-phenylamino}-4H-thiazol-5-ylidenemethyl)-naphthalen-2-yloxy]-acetic acid]"
3,(+++) (+++ = >50% inhibition),"O=C(O)Cc1ccc(NC2=NC(=O)C(=Cc3cc4ccccc4cc3OCc3ccccc3)S2)cc1 [Compound 3, {4-[5-(3-Benzyloxy-naphthalen-2-ylmethylene)-4-oxo-4,5-dihydro-thiazol-2-ylamino]-phenyl}-acetic acid]"
4,(+++) (+++ = >50% inhibition),"O=C(O)Cc1ccc(NC2=NC(=O)C(=Cc3ccc(-c4ccccc4)cc3)S2)cc1C(=O)O [Compound 200, 5-(5-Biphenyl-4-ylmethylene-4-oxo-4,5-dihydro-thiazol-2-ylamino)-2-carboxymethyl-benzoic acid]"
5,(++) (++ = 20-50% inhibition),"CC(C)Oc1cc2ccccc2cc1C=C1SC(Nc2ccc(CC(=O)O)cc2)=NC1=O [Compound 10, {4-[5-(3-Isopropoxy-naphthalen-2-ylmethylene)-4-oxo-4,5-dihydro-thiazol-2-ylamino]-phenyl}-acetic acid]"
6,(+) (+ = 10-20% inhibition),"COc1cc(C=C2SC(Nc3ccc(CC(=O)O)cc3)=NC2=O)cc(OC)c1O [Compound 56, {4-[c-(4-hydroxy-3,5-dimethoxy-benzylidene)-4-oxo-4,5-dihydro-thiazol-2-ylamino]-phenyl}-acetic acid]"
7,(+++) (+++ = >50% inhibition),"O=C(O)Cc1ccc(NC2=NC(=O)C(=Cc3cn(CC(=O)O)c4ccccc34)S2)cc1 [Compound 2, {4-[5-(1-Carboxymethyl-1H-indol-3-ylmethylene)-4-oxo-4,5-dihydro-thiazol-2-ylamino]-phenyl}-acetic acid]"
8,(+++) (+++ = >50% inhibition),"Cc1ccc(S(=O)(=O)NC(=O)Cc2ccc(NC3=NC(=O)C(=Cc4ccc(-n5cnnn5)c(OCc5ccccc5)c4)S3)cc2)cc1.[Na] [Compound 131, N-(2-{4-[5-(3-Benzyloxy-4-tetrazol-1-yl-benzylidene)-4-oxo-4,5-dihydro-thiazol-2-ylamino]-phenyl}-acetyl)-4-methyl-benzenesulfonamide sodium salt]"
9,(+++) (+++ = >50% inhibition),"[4-(N′-{4-Oxo-5-[4-(1H-tetrazol-5-yl)-benzylidene]-4,5-dihydro-thiazol-2-yl}-hydrazino)-phenyl]-acetic acid [Compound 34]"
10,(++) (++ = 20-50% inhibition),"N#Cc1ccccc1-c1ccc(C=C2SC(Nc3ccc(CC(=O)O)cc3)=NC2=O)cc1 [Compound 17, {4-[5-(2′-Cyano-biphenyl-4-ylmethylene)-4-oxo-4,5-dihydro-thiazol-2-ylamino]-phenyl}-acetic acid]"
11,(++) (++ = 20-50% inhibition),"O=C(Cc1ccc(NC2=NC(=O)C(=Cc3ccc(-c4ccccc4)cc3)S2)cc1)NS(=O)(=O)c1cccs1.[Na] [Compound 223, Thiophene-2-sulfonic acid {2-[4-(5-biphenyl-4-ylmethylene-4-oxo-4,5-dihydro-thiazol-2-ylamino)-phenyl]-acetyl}-amide, sodium salt]"
12,(+) (+ = 10-20% inhibition),"Cc1ccc(S(=O)(=O)NC(=O)Cc2ccc(NC3=NC(=O)C(=Cc4cc5ccccc5cc4OCc4ccccc4)S3)cc2)cc1 [Compound 26, N-(2-{4-[5-(3-Benzyloxy-naphthalen-2-ylmethylene)-4-oxo-4,5-dihydro-thiazol-2-ylamino]-phenyl}-acetyl)-4-methyl-benzenesulfonamide]"
